Measured values as given in patent US20250145589A1, “PYRIDINE DERIVATIVE AND USE THEREOF” (SICHUAN HUIYU PHARMACEUTICAL CO., LTD., priority 2021, published 2025).
Like-named read-outs stand apart in the source and are kept apart here.

Tests used:
[1] = test system: NCI-H358 cells (KRAS G12C mutant); experiment: NCI-H358 cell proliferation inhibition (CellTiter-Glo); type: cell-based; details: Homo sapiens, NCI-H358, 72 h; H358 cells (G12C mutation), 3 days, Table 6; read-out: NCI-H358 (IC50)
PI3Kδ = PI3Kδ (Homo sapiens (Human), UniProt O00329); experiment: Inhibition of PI3Kδ efficacy assay (ADP-Glo kinase assay); type: biochemical; details: read-out: PI3Kδ inhibitory activity (IC50)
How it was run: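 Luminescent ADP-Glo readout of PI3Kδ: after a 60 min RT reaction with PI/ATP substrate, ATP depletion (40 min) and ADP detection (40 min) steps followed. Compounds tested as eight five-fold serial dilutions; inhibition rates fitted to log(inhibitor) vs. response, variable slope, for IC50.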

KRAS^G12C-SOS1 = KRAS^G12C-SOS1 (Homo sapiens (Human), UniProt P01116, G12C); experiment: HTRF KRAS G12C/SOS1 binding assay; details: Table 5
How it was run: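 Compound was serially diluted five-fold over eight points, with a 2 mM DMSO stock. After anti-tag-Tb3+ and anti-tag-XL665 were added, plates were incubated 3 h at 4 °C and read by HTRF (ex 337 nm, em 620/665 nm ratio). IC50 values come from four-parameter variable-slope fits.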

PI3Kα = PI3Kα (Homo sapiens (Human), UniProt P42336); experiment: Inhibition of PI3Kα efficacy assay (ADP-Glo kinase assay); type: biochemical; details: read-out: PI3Kα inhibitory activity (IC50)
How it was run: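 ADP-Glo luminescent detection of ADP from PI3Kα acting on PI substrate with ATP, 60 min at RT; compounds in 8-point five-fold serial dilution from 2 mM DMSO stock. IC50 from four-parameter variable-slope fit.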

Sequence of PI3Kα (P42336 whole entry): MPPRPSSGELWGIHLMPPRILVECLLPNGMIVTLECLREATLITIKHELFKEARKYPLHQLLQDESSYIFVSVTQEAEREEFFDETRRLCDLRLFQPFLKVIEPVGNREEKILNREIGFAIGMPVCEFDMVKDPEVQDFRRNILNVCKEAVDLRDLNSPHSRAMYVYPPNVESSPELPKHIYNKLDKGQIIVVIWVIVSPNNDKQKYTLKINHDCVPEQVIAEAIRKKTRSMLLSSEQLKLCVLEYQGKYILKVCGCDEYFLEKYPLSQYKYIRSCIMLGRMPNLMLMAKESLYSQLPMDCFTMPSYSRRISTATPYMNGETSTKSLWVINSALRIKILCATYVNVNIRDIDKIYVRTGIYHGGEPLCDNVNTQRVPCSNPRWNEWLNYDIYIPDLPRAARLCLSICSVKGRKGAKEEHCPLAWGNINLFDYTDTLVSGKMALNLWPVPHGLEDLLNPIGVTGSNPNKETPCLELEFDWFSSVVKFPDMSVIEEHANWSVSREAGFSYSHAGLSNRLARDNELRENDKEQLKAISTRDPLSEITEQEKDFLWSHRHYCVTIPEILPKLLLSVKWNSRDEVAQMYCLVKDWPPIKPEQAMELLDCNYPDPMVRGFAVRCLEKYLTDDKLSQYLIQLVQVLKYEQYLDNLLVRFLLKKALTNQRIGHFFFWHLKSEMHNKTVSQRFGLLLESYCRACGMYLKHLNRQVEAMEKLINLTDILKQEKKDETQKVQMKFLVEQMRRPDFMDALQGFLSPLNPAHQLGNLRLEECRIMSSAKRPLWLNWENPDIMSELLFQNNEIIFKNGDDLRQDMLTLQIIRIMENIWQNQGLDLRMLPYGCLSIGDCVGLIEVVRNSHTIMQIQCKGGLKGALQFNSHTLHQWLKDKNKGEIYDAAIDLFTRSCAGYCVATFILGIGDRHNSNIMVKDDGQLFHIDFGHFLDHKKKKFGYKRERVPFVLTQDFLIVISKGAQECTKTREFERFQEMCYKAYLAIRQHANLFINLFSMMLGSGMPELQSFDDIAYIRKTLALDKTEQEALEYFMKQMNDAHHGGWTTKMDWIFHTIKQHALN
Sequence of PI3Kα (P27986 whole entry partner): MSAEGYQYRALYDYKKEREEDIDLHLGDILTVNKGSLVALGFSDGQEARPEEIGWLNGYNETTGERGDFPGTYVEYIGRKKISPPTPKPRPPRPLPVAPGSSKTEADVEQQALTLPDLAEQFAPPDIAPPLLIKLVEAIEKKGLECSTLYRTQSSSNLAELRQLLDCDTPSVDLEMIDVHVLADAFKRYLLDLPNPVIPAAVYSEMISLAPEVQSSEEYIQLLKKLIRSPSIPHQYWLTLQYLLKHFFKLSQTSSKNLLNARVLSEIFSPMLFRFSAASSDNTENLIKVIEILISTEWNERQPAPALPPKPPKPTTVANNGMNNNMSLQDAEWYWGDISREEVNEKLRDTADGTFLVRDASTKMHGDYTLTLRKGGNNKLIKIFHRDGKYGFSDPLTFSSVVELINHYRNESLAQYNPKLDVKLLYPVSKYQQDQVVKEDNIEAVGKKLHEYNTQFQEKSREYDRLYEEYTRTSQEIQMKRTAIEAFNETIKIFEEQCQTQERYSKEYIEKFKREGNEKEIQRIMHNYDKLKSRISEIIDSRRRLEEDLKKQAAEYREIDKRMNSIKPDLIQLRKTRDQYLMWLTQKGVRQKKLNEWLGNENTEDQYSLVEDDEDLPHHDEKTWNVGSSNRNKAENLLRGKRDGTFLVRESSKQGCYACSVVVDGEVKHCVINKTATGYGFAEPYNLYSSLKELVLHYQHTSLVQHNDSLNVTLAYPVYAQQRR
Sequence of PI3Kδ (O00329 whole entry): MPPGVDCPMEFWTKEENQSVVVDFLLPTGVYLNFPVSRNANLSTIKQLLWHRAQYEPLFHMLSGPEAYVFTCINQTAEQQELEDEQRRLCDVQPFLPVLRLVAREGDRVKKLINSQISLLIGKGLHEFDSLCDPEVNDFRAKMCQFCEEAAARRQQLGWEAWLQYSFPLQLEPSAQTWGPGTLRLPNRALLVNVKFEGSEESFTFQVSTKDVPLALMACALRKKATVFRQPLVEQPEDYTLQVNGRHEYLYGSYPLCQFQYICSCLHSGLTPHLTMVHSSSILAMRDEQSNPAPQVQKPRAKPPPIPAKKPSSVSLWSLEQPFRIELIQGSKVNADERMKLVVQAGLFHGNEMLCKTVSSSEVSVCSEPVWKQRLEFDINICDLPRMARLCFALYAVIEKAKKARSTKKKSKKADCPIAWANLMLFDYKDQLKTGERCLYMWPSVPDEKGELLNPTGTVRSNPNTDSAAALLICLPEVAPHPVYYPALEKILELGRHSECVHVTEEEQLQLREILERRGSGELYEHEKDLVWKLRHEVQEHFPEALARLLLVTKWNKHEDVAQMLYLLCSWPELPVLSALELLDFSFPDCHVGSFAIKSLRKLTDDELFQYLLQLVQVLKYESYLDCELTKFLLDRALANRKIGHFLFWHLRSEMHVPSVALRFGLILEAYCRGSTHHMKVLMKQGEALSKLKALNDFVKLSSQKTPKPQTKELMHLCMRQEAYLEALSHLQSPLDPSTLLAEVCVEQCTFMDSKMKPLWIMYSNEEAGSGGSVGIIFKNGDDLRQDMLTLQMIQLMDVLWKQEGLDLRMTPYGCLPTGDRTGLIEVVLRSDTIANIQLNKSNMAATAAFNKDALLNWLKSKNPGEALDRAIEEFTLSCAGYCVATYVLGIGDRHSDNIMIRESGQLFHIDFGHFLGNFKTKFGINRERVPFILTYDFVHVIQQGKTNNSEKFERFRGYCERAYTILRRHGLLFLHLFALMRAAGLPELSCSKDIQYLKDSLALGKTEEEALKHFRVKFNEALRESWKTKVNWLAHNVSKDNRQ
Sequence of PI3Kδ (P27986 whole entry partner): as the sequence (P27986 whole entry partner) above
Sequence of KRAS^G12C-SOS1 (P01116-2 other isoform, or with tags, fused parts or gaps G12C): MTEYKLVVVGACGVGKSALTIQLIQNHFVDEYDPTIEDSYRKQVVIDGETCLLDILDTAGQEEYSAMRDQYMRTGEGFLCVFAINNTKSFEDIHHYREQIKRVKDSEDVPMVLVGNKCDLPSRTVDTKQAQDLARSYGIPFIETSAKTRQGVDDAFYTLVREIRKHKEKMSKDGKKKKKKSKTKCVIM

Compound | IC50 [1] [µM] | IC50 (PI3Kδ; Table 4) [µM] | IC50 (KRAS^G12C-SOS1) [µM] | IC50 (PI3Kα; Table 4) [µM] | IC50 (PI3Kδ; Table 1) [µM] | IC50 (PI3Kα; Table 1) [µM] | IC50 (PI3Kδ; Table 2) [µM] | IC50 (PI3Kα; Table 2) [µM]
COc1ncc(-c2ccc3ncnc(N4CCN(C(=O)/C=C/C(C)=O)CC4)c3n2)cc1NS(=O)(=O)c1c(Cl)cncc1Cl [Example 224, (E)-3,5-dichloro-N-(2-methoxy-5-(4-(4-(4-oxopent-2-enoyl)piperazin-1-yl)pyrido[3,2-d]pyrimidin-6-yl)pyridin-3-yl) pyridine-4-sulfonamide] | 0.0881 | 0.0238 | 0.188 | 0.0011 | – | – | – | –
COc1ncc(-c2ccc3ncnc(N4CCN(C(=O)/C=C/C(C)=O)CC4)c3c2)cc1NS(=O)(=O)c1ncc(Cl)s1 [Example 165, (E)-5-chloro-N-(2-methoxy-5-(4-(4-(4-oxopent-2-enoyl)piperazin-1-yl)quinazolin-6-yl)pyridin-3-yl)thiazole-2-sulfonamide] | 0.0365 | 0.012 | 0.362 | 0.0012 | – | – | – | –
COc1ncc(-c2ccc3ncnc(C4CCN(C(=O)/C=C/C(C)=O)CC4)c3c2)cc1NS(=O)(=O)c1sc(C)nc1C [Example 203, (E)-N-(2-methoxy-5-(4-(1-(4-oxopent-2-enoyl)piperidin-4-yl)quinazolin-6-yl)pyridin-3-yl)-2,4-dimethylthiazole-5-sulfonamide] | 0.0085 | 0.0104 | 0.419 | 0.0024 | – | – | – | –
COc1ncc(-c2ccc3ncnc(C4CCN(C(=O)/C=C/C(C)=O)CC4)c3n2)cc1NS(=O)(=O)c1sc(C)nc1C [Example 230, (E)-N-(2-methoxy-5-(4-(1-(4-oxopent-2-enoyl)piperidin-4-yl)pyrido[3,2-d]pyrimidin-6-yl)pyridin-3-yl)-2,4-dimethylthiazol-5-sulfonamide] | 0.0069 | 0.0047 | 0.493 | 0.0026 | – | – | – | –
COc1ncc(-c2ccc3ncnc(C4=CCN(C(=O)/C=C/C(C)=O)CC4)c3c2)cc1NS(=O)(=O)c1c(F)cccc1Cl [Example 202, (E)-2-chloro-6-fluoro-N-(2-methoxy-5-(4-(1-(4-oxopent-2-enoyl)-1,2,3,6-tetrahydropyridin-4-yl)quinazolin-6-yl)pyridin-3-yl)benzene-sulfonamide] | 0.0052 | 0.0279 | 0.142 | 0.0019 | – | – | – | –
COc1ncc(-c2ccc3ncnc(N4CCC5(CC4)CN(C(=O)/C=C/C(C)=O)C5)c3c2)cc1NS(=O)(=O)c1ccc(F)cc1F [Example 20, (E)-2,4-difluoro-N-(2-methoxy-5-(4-(2-(4-oxopent-2-enoyl)-2,7-diazaspiro[3.5]nonan-7-yl)quinazolin-6-yl)pyridin-3-yl)benzenesulfonamide] | 0.0262 | – | 0.239 | – | 0.212 | 0.0074 | – | –
COc1ncc(-c2ccc3ncnc(C4=CCN(C(=O)/C=C/C(C)=O)CC4)c3c2)cc1NS(=O)(=O)c1sc(C)nc1C [Example 199, (E)-N-(2-methoxy-5-(4-(1-(4-oxopent-2-enoyl)-1,2,3,6-tetrahydropyridin-4-yl)quinazolin-6-yl)pyridin-3-yl)-2,4-dimethylthiazole-5-sulfonamide] | 0.012 | 0.012 | 0.176 | 0.0015 | – | – | – | –
COc1ncc(-c2ccc3ncnc(N4CCN(C(=O)/C=C/C(C)=O)CC4)c3c2)cc1NS(=O)(=O)c1ccccc1F [Example 91, (E)-2-fluoro-N-(2-methoxy-5-(4-(4-(4-oxopent-2-enoyl)piperazin-1-yl)quinazolin-6-yl)pyridin-3-yl)benzenesulfonamide] | 0.0178 | – | 0.173 | – | – | – | 0.0615 | 0.0026
COc1ncc(-c2ccc3ncnc(N4CCN(C(=O)/C=C/C(C)=O)CC4)c3c2)cc1NS(=O)(=O)c1c(F)cccc1C#N [Example 122, (E)-2-cyano-6-fluoro-N-(2-methoxy-5-(4-(4-(4-oxopent-2-enoyl)piperazin-1-yl)quinazolin-6-yl)pyridin-3-yl)benzenesulfonamide] | 0.0479 | – | 0.145 | – | – | – | 0.0047 | 0.0081
COc1ncc(-c2ccc3ncnc(N4CCN(C(=O)/C=C/C(C)=O)CC4)c3c2)cc1NS(=O)(=O)c1ccc(Cl)cc1F [Example 177, (E)-4-chloro-2-fluoro-N-(2-methoxy-5-(4-(4-(4-oxopent-2-enoyl)piperazin-1-yl)quinazolin-6-yl)pyridin-3-yl)benzene-sulfonamide] | 0.0361 | 0.0191 | 0.246 | 0.005 | – | – | – | –
COc1ccc(Cl)c(S(=O)(=O)Nc2cc(-c3ccc4ncnc(N5CCN(C(=O)/C=C/C(C)=O)CC5)c4c3)cnc2OC)c1 [Example 184, (E)-2-chloro-5-methoxy-N-(2-methoxy-5-(4-(4-(4-oxopent-2-enoyl)piperazin-1-yl)quinazolin-6-yl)pyridin-3-yl)benzene-sulfonamide] | 0.0738 | 0.0162 | 0.365 | 0.00081 | – | – | – | –
CCOc1ncc(-c2ccc3ncnc(N4CCN(C(=O)/C=C/C(C)=O)CC4)c3c2)cc1NS(=O)(=O)c1ccc(F)cc1F [Example 109, (E)-N-(2-ethoxy-5-(4-(4-(4-oxopent-2-enoyl)piperazin-1-yl)quinazolin-6-yl)pyridin-3-yl)-2,4-difluorobenzenesulfonamide] | 0.0638 | – | 0.499 | – | – | – | 0.0489 | 0.0035
COc1ncc(-c2ccc3ncnc(N4CCN(C(=O)/C=C/C(C)=O)C[C@@H]4C)c3c2)cc1NS(=O)(=O)c1ccc(F)cc1Cl [Example 174, (S,E)-2-chloro-4-fluoro-N-(2-methoxy-5-(4-(2-methyl-4-(4-oxopent-2-enoyl)piperazin-1-yl)quinazolin-6-yl)pyridin-3-yl)benzene-sulfonamide] | 0.0158 | 0.0171 | 0.423 | 0.0035 | – | – | – | –
COc1ncc(-c2ccc3ncnc(C4CCN(C(=O)/C=C/C(C)=O)CC4)c3c2)cc1NS(=O)(=O)c1ccccc1F [Example 204, (E)-2-fluoro-N-(2-methoxy-5-(4-(1-(4-oxopent-2-enoyl)piperidin-4-yl)quinazolin-6-yl)pyridin-3-yl)benzenesulfonamide] | 0.0252 | 0.017 | 0.306 | 0.0033 | – | – | – | –
COc1ncc(-c2ccc3ncnc(N4C[C@@H](C)N(C(=O)/C=C/C(C)=O)C[C@@H]4C)c3c2)cc1NS(=O)(=O)c1ccc(F)cc1F [Example 15, N-(5-(4-((2S,5R)-2,5-dimethyl-4-((E)-4-oxopent-2-enoyl)piperazin-1-yl)quinazolin-6-yl)-2-methoxypyridin-3-yl)-2,4-difluorobenzenesulfonamide] | 0.0199 | – | 0.558 | – | 0.13 | 0.0102 | – | –
COc1ncc(-c2ccc3ncnc(N4CCN(C(=O)/C=C/C(C)=O)CC4)c3n2)cc1NS(=O)(=O)c1c(F)cncc1F [Example 210, (E)-3,5-difluoro-N-(2-methoxy-5-(4-(4-(4-oxopent-2-enoyl)piperazin-1-yl)pyrido[3,2-d]pyrimidin-6-yl)pyridin-3-yl)pyridine-4-sulfonamide] | 0.0534 | 0.0059 | 0.131 | 0.00054 | – | – | – | –
COc1ncc(-c2ccc3ncnc(N4CCN(C(=O)/C=C/C(C)=O)C[C@@H]4C)c3c2)cc1NS(=O)(=O)c1ccc(F)cc1 [Example 153, (S,E)-4-fluoro-N-(2-methoxy-5-(4-(2-methyl-4-(4-oxopent-2-enoyl)piperazin-1-yl)quinazolin-6-yl)pyridin-3-yl)benzenesulfonamide] | 0.0598 | 0.0127 | 0.21 | 0.00073 | – | – | – | –
COc1ncc(-c2ccc3ncnc(N4CCN(C(=O)/C=C/C(C)=O)CC4)c3n2)cc1NS(=O)(=O)c1cc(F)ccc1F [Example 217, (E)-2,5-difluoro-N-(2-methoxy-5-(4-(4-(4-oxopent-2-enoyl)piperazin-1-yl)pyrido[3,2-d]pyrimidin-6-yl)pyridin-3-yl) benzene-sulfonamide] | 0.027 | 0.0106 | 0.207 | 0.00041 | – | – | – | –
COc1ncc(-c2ccc3ncnc(N4CCN(C(=O)/C=C/C(C)=O)CC4)c3c2)cc1NS(=O)(=O)c1ccc(F)cc1 [Example 92, (E)-4-fluoro-N-(2-methoxy-5-(4-(4-(4-oxopent-2-enoyl)piperazin-1-yl)quinazolin-6-yl)pyridin-3-yl)benzenesulfonamide] | 0.0167 | – | 0.369 | – | – | – | 0.0511 | 0.0064
COc1ncc(-c2ccc3ncnc(N4CC5CCC(C4)N5C(=O)/C=C/C(C)=O)c3c2)cc1NS(=O)(=O)c1sc(C)nc1C [Example 176, N-(2-methoxy-5-(4-(8-((E)-4-oxopent-2-enoyl)-3,8-diazabicyclo [3.2.1]octan-3-yl)quinazolin-6-yl)pyridin-3-yl)-2,4-dimethyl-thiazole-5-sulfonamide] | 0.027 | 0.0139 | 0.113 | 0.0026 | – | – | – | –
